This passage reports Ki and half-life results from US10941137B2, “Difluoromethyl-phenyl triazoles” (Boehringer Ingelheim International GmbH, priority 2018, dated 2021).

The target of series [1] is T1, human GABAA α5β3γ2s receptor (Homo sapiens, UniProt P18507+P31644).
T1 sequence (P18507 1-475): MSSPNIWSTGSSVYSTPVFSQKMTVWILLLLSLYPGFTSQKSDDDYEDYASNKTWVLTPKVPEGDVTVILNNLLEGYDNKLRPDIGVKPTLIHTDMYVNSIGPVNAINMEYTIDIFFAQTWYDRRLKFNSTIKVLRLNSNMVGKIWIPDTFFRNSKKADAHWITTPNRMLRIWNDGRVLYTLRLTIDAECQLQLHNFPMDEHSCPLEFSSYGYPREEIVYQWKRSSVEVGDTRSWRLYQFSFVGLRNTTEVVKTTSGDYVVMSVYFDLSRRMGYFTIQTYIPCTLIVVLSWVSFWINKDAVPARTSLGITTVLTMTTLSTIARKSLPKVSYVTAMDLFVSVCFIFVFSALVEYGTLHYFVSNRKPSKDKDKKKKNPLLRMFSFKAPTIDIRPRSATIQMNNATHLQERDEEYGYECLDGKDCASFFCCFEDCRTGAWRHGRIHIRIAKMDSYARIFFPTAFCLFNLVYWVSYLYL
T1 sequence (P31644 1-462): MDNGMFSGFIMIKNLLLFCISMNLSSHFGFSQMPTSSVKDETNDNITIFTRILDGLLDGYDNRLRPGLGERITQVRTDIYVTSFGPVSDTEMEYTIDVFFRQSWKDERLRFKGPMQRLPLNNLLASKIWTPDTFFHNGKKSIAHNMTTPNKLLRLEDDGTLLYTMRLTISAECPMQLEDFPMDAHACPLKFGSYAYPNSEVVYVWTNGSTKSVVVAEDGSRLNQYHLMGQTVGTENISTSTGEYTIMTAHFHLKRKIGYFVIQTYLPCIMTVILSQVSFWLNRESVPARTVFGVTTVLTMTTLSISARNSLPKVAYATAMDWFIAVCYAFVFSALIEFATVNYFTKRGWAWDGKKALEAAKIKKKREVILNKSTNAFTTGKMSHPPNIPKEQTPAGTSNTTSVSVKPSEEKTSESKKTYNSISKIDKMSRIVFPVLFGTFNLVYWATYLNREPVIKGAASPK
Description: Assay A: in vitro inhibition of 3H-flumazenil binding, HEK cells expressing human GABAA α5β3γ2s receptor. The settings on record: 3H-flumazenil 1 nM, HEK-293 membranes, 40 min at 2° C.; Ki from IC50 by Cheng and Prusoff. How it is done:
HEK-293 cell lines with stable expression of recombinant human GABAA α5β3γ2s receptors (plasmid H46/E9/B10) are seeded in T175 polystyrene flasks or roller bottles (1700 cm^2, Fisher Scientific CCI-431191), and cultured (37 C, 5% CO˜) in Dulbecco's Modified Eagle Medium (DMEM) with GlutaMAX™ supplemented with 10% fetal bovine serum and one or both of the following antibiotics: hygromycin B ([…]; γ2 subunit) or G418 (0.5 mg/ml; […]).
When the cultures reach confluency, the DMEM is removed and the cells are washed (10 ml for T175 flasks; 50 ml for roller bottles) once in Dulbecco's Phosphate Buffered Saline (DPBS). Following addition of DPBS to the cultures (10 ml for T175 flasks; 100 ml for roller bottles) for approximately 5 min cells are easily detached from the surface by shaking or tapping the flask gently. The cell suspension is transferred to Falcon tubes and centrifuged at 23,500×g for 10 min at 2° C. The pellet is washed once in 15 ml Tris-citrate buffer (50 mM, pH 7.1) using an Ultra-Turrax homogenizer and centrifuged at 2° C. for 10 min at 27,000×g. The washed pellet is re-suspended in 15 ml Tris-citrate buffer and frozen at −80° C. until the day of the binding experiment.
On the day of the experiment the cell membrane preparation is thawed and centrifuged at 2° C. for 10 min at 27,000×g. The pellet is re-suspended, using an Ultra-Turrax homogenizer in Tris-citrate buffer, to 15-50 µg protein per assay and then used for binding assays.
Non-specific binding is determined using clonazepam (1 μM, final concentration).
All dilutions of test compounds and incubation of assay are performed in glass vials/96-vial plates. […] Compounds are dissolved in 100% DMSO (10 mM stock), diluted in 48% ethanol-water, and tested in triplicate in serial 1:3 or 1:10 dilutions. When screening large numbers of compounds only one concentration of each compound is tested in single wells. Reference compounds are not included routinely, but for each experiment performed total and nonspecific binding is compared to data obtained during validation of the assay.
Binding is either terminated by rapid filtration onto
1) Whatman GF/C glass fibre filters using a Brandel Cell harvester, followed by 5 washes with 1 ml ice-cold buffer or onto 2) UniFilter GF/C glass fibre filter plates using a Tomtec cell harvester, followed by washing with approximately 5 ml ice-cold buffer.
The amount of radioactivity on the filters is determined by conventional liquid scintillation counting using a
1) Tri-Garb™ counter (PerkinElmer Life and Analytical Sciences) for separate large filters or
2) Topcount™ counter (PerkinElmer Life and Analytical Sciences) for 96-well filter plates. Specific binding is total binding minus non-specific binding.
For screening purposes n is set to 1. The IC50 value is calculated from the concentration response curves by the non-linear regression method using the curve-fitting program GraphPad Prism. […]

Series [2] in a line: Metabolic stability in human liver microsomes (Human MST). The settings on record: pooled human liver microsomes, pH 7.6; human liver microsomes 1 mg/mL, 1 μM compound, NADPH 1 mM, 37° C.; read-out: Human MST t1/2. Format: in vitro ADME. As to the method: Assessment of Metabolic Stability in Human Liver Microsomes (Human MST) The metabolic stability of the compounds according to the invention may be investigated as follows: The metabolic degradation of the test compound is assayed at 37° C. with pooled human liver microsomes. The final incubation volume of 100 μL per time point contains TRIS buffer pH 7.6 at room temperature (0.1 M), MgCl2 (5 mM), microsomal protein (1 mg/mL) and the test compound at a final concentration of 1 μM. Following a short pre-incubation period at 37° C., the reactions are initiated by addition of beta-nicotinamide adenine dinucleotide phosphate, reduced form (NADPH, 1 mM), and terminated by transferring an aliquot into solvent after different time points. After centrifugation (10000 g, 5 min), an aliquot of the supernatant is assayed by LCMS/MS for the amount of parent compound. The half-life (t½) is determined by the slope of the semi-logarithmic plot of the concentration-time profile.
In general terms: Microsomes from liver hold many membrane-bound enzymes, among them those of drug oxidation.

Broadly, the Ki is the equilibrium dissociation constant of an inhibitor or competing ligand from its target. The low end stands for a stronger hold on the target, the high end for a looser hold on the target. Molecule `Cc1nnn(-c2ccc(C(F)F)cc2)c1COc1ccc(-c2ccnc(O)c2)nn1` [Example 2, 4-[6-({1-[4-(difluoromethyl)phenyl]-4-methyl-1H-1,2,3-triazol-5-yl}methoxy)pyridazin-3-yl]pyridin-2-ol] returned a Ki in series [1] of 0.086 nM. Besides, the half-life at 1 μM in series [2] was over 2.17 h.

For the molecule `COc1ncc(-c2ccc(OCc3c(C)nnn3-c3ccc(C(F)F)cc3)nn2)cn1` [Example 3], in series [1], the Ki stood at 0.16 nM.

Take `Cc1nnn(-c2ccc(C(F)F)cc2)c1COc1ccc(-c2cnc(OCC(C)(C)O)nc2)nn1` [Example 4]: the Ki in series [1] is 0.87 nM. Further, the half-life at 1 μM in series [2] was over 2.17 h.

In turn, `Cc1nnn(-c2ccc(C(F)F)cc2)c1COc1ccc(-c2cnn(C)c2)nn1` [Example 5] gave a Ki in series [1] of 0.11 nM. Further, in series [2], the half-life at 1 μM is over 2.17 h.

`Cc1ncc(-c2ccc(OCc3c(C)nnn3-c3ccc(C(F)F)cc3)nn2)o1` [Example 6] showed a Ki in series [1] of 0.11 nM. The half-life at 1 μM in series [2] was over 2.17 h.

As for `CCn1cc(-c2ccc(OCc3c(C)nnn3-c3ccc(C(F)F)cc3)nn2)cn1` [Example 7], the Ki in series [1] was 0.032 nM.

For the molecule `Cc1nnn(-c2ccc(C(F)F)cc2)c1COc1ccc(-c2cncc(-n3ccnc3)c2)nn1` [Example 8], the affinity in series [1], expressed as Ki, was 0.055 nM. The half-life at 1 μM in series [2] is 1.22 h.

The molecule `Cc1nnn(-c2ccc(C(F)F)cc2)c1COc1ccc(-c2cnn(C3CC3)c2)nn1` [Example 9] displayed a Ki in series [1] of 0.25 nM. For the same molecule, the half-life at 1 μM in series [2] was over 2.17 h.

The molecule `Cc1cc(-c2ccc(OCc3c(C)nnn3-c3ccc(C(F)F)cc3)nn2)cnn1` [Example 11] showed a Ki in series [1] of 0.058 nM. The half-life at 1 μM in series [2] is over 2.17 h.

`Cc1n[nH]c(C)c1-c1ccc(OCc2c(C)nnn2-c2ccc(C(F)F)cc2)nn1` [Example 12, 3-({1-[4-(difluoromethyl)phenyl]-4-methyl-1H-1,2,3-triazol-5-yl}methoxy)-6-(3,5-dimethyl-1H-pyrazol-4-yl)pyridazine] displayed a Ki in series [1] of 0.9 nM. Moreover, the half-life at 1 μM in series [2] turned out to be 0.417 h.

`CNC(=O)c1cn(-c2ccc(OCc3c(C)nnn3-c3ccc(C(F)F)cc3)nn2)cn1` [Example 14] registered a Ki in series [1] of 0.071 nM. Further, the half-life at 1 μM in series [2] was over 2.17 h.

In series [1], `Cc1nnn(-c2ccc(C(F)F)cc2)c1COc1ccc(-n2cnc(C(F)F)c2)nn1` [Example 15] displayed a Ki of 0.11 nM. Further, the half-life at 1 μM in series [2] was over 2.17 h.

In series [1], `Cc1nnn(-c2ccc(C(F)F)cc2)c1COc1ccc(-n2cnc(C=O)c2)nn1` [Example 17] displayed a Ki of 0.089 nM. Besides, the half-life at 1 μM in series [2] came to 0.167 h.

As for `Cc1nnn(-c2ccc(C(F)F)cc2)c1COc1ccc(-n2cnc(Cl)c2)nn1` [Example 18], the affinity in series [1], expressed as Ki, was 0.056 nM. In series [2], the half-life at 1 μM was over 2.17 h.

Consider `Cc1nnn(-c2ccc(C(F)F)cc2)c1COc1ccc(-n2cnc(S(C)(=O)=O)c2)nn1` [Example 19], for which the Ki in series [1] was 0.38 nM. Besides, the half-life at 1 μM in series [2] is over 2.17 h.

In the case of `Cc1nnn(-c2ccc(C(F)F)cc2)c1COc1ccc(-n2ccc(C#N)n2)nn1` [Example 20], affinity in series [1] was put at a Ki of 0.009 nM.

`Cc1nnn(-c2ccc(C(F)F)cc2)c1COc1ccc(-n2ccc(C(N)=O)n2)nn1` [Example 21] registered a Ki in series [1] of 0.047 nM. Also, the half-life at 1 μM in series [2] was 0.617 h.

In series [1], `Cc1nnn(-c2ccc(C(F)F)cc2)c1COc1ccc(-c2cncnc2)nn1` [Example 22] registered a Ki of 0.11 nM. Also, in series [2], the half-life at 1 μM is over 2.17 h.

In turn, `Cc1nnn(-c2ccc(C(F)F)cc2)c1COc1ccc(-n2ccc(C(F)(F)F)n2)nn1` [Example 24] yielded a Ki in series [1] of 0.25 nM. Further, in series [2], the half-life at 1 μM is 0.517 h.

In the case of `Cc1nnn(-c2ccc(C(F)F)cc2)c1COc1ccc(-n2cc(C(F)(F)F)cn2)nn1` [Example 25], the Ki in series [1] was found to be 0.35 nM. Besides, the half-life at 1 μM in series [2] is over 2.17 h.

`Cc1nnn(-c2ccc(C(F)F)cc2)c1COc1ccc(-n2cc3c(n2)CCNC3=O)nn1` [Example 26]: the Ki in series [1] came out at 0.12 nM. Moreover, in series [2], the half-life at 1 μM is over 2.17 h.

In turn, `Cc1nnn(-c2ccc(C(F)F)cc2)c1COc1ccc(-n2cnc(C(N)=O)c2)nn1` [Example 27, 1-[6-({1-[4-(difluoromethyl)phenyl]-4-methyl-1H-1,2,3-triazol-5-yl}methoxy)pyridazin-3-yl]-1H-imidazole-4-carboxamide] had an inhibition constant (Ki) in series [1] of 0.036 nM. Further, the half-life at 1 μM in series [2] was over 2.17 h.

For `COC(=O)c1cn(-c2ccc(OCc3c(C)nnn3-c3ccc(C(F)F)cc3)nn2)cn1` [Example 29], affinity in series [1] was put at a Ki of 0.063 nM. In addition, the half-life at 1 μM in series [2] came to 0.433 h.

In series [1], `Cc1nnn(-c2ccc(C(F)F)cc2)c1COc1ccc(-n2cc(C#N)cn2)nn1` [Example 31] showed a Ki of 0.21 nM. Further, the half-life at 1 μM in series [2] was over 2.17 h.

For `CC(=O)c1cn(-c2ccc(OCc3c(C)nnn3-c3ccc(C(F)F)cc3)nn2)cn1` [Example 32], the affinity in series [1] corresponds to a Ki of 0.039 nM. For the same molecule, the half-life at 1 μM in series [2] was over 2.17 h.

Consider `Cc1ncn(-c2ccc(OCc3c(C)nnn3-c3ccc(C(F)F)cc3)nn2)n1` [Example 33], for which, in series [1], the Ki came to 0.163 nM. For the same molecule, the half-life at 1 μM in series [2] is over 2.17 h.

Consider `Cc1nnn(-c2ccc(C(F)F)cc2)c1COc1ccc(-n2cnc(CN)c2)nn1` [Example 35, {1-[6-({1-[4-(difluoromethyl)phenyl]-4-methyl-1H-1,2,3-triazol-5-yl}methoxy)pyridazin-3-yl]-1H-imidazol-4-yl}methanamine], for which the affinity in series [1], expressed as Ki, was 0.057 nM. In addition, the half-life at 1 μM in series [2] was over 2.17 h.

As to `Cc1nnn(-c2ccc(C(F)F)cc2)c1COc1ccc(-n2cnc(C[N+](C)(C)C)c2)nn1.O=C([O-])C(F)(F)F` [Example 36, ({1-[6-({1-[4-(difluoromethyl)phenyl]-4-methyl-1H-1,2,3-triazol-5-yl}methoxy)pyridazin-3-yl]-1H-imidazol-4-yl}methyl)trimethylazanium trifluoroacetate], the Ki in series [1] is 0.12 nM. Also, the half-life at 1 μM in series [2] is over 2.17 h.
